IC50 data for two compounds are collected here from ChEMBL document CHEMBL1147473, “Synthesis of a bioprobe for elucidation of target molecule of spongean anti-malarial peroxides” (Bioorg Med Chem Lett, 2004).

This experiment concerns Plasmodium falciparum. As to the kind of experiment: Inhibitory concentration against Plasmodium falciparum. It counts as functional, organism-based.

SMILES strings stand for the structures.

The term IC50 denotes the point on the concentration scale where inhibition reaches its midpoint. Higher therefore signals weaker potency. On to `COC(=O)CC1CCC(CCCCCOC(=O)NCCCCNC(=O)OCCOCCOC(=O)NCCCC[C@@H]2CCC3NC(=O)NC32)(OC)OO1` (some centres not stated), for which it took 570 nM to reach half-maximal inhibition (IC50).
Then `COC(=O)CC1CCC(CCCCCOC(=O)NCCCC[C@@H]2CCC3NC(=O)NC32)(OC)OO1` (some centres not stated), with 910 nM.
